Two molecules from article PMC5481357, “Characterization of Three L-Asparaginases from Maritime Pine (Pinus pinaster Ait.)” (Frontiers in Plant Science, 2017) can be followed below.

What is called Km is the concentration of substrate that gives half-maximal velocity.

Assay in all cases: GOT/MDH-coupled aspartate release, NADH oxidation; Hanes-Woolf
Holding throughout (format): biochemical, Pinus pinaster
Holding throughout (conditions): 50 mM HEPES pH 7.8, 50 mM KCl

The subject of experiment [1] is T1, PpASPG1.
T1 construct: full ORF (1128 nt, 375 residues incl. 77-residue variable loop), expressed in Nicotiana benthamiana; conventional purification, untagged by the measured beta mass; autocleaved before Thr245 into alpha (26,431 Da, Met1 removed) and beta (13,325 Da); plant ASPG (alpha beta)2
The source says:
GOT/MDH-coupled aspartate release, NADH oxidation; Hanes-Woolf on […]1 | changes in the Km and Vmax values for L-Asn and β-L-Asp-L-Ala (Supplementary Table S3)

Experiment [2] deals with T1, PpASPG1. This is another data set of the same source.
Experiment [3] deals with T2, PpASPG3.
T2 construct: full ORF (918 nt, 305 residues) with C-terminal HA and poly-His tag, expressed in Nicotiana benthamiana, Ni-TED purified; partly processed into alpha and beta subunits

Structures are written as SMILES.

Regarding `NC(=O)C[C@H](N)C(=O)O` [L-Asn], the Km in experiment [1] (deletion variant with C-terminal HA and poly-His tag, partly unprocessed precursor) is 7.16 ± 0.88 mM; in experiment [2], 4.58 ± 0.03 mM; in experiment [3], 6.12 ± 0.96 mM.

Regarding `C[C@H](NC(=O)C[C@H](N)C(=O)O)C(=O)O` [β-L-Asp-L-Ala], the Michaelis constant (Km) in experiment [1] turned out to be 9.44 ± 0.82 mM; in experiment [2], 56.7 ± 13.9 mM; in experiment [3], 1.04 ± 0.21 mM.
